Source: patent US12643895B2, “Heteroaryl-substituted pyrazolo-pyridine protein kinase inhibitors for promoting liver regeneration or reducing or preventing hepatocyte death” (HepaRegeniX GmbH, priority 2019, dated 2026)

Legend:
Type in all cases: biochemical
[1] = target: T1, JNK1 (Homo sapiens, UniProt P45983); assay: 33PanQinase radiometric kinase assay, JNK1 (off-target); conditions: ratio IC50(off-target)/IC50(MKK4)
T1 construct: purchased ProQinase GmbH, Freiburg, Germany (assay service)
Experimental: (§1) The kinase activities of the compounds of the invention were measured using the 33PanQinase® Assay Service provided by ProQinase GmbH, Freiburg, Germany. Details of the assay conditions are disclosed on the website of ProQinase (https://www.proqinase.com/products-services-biochemical-assay-services/kinase-assays). In brief, all kinase assays were performed in 96-well FlashPlates™ from PerkinElmer (Boston, MA, USA) in a 50 μl reaction volume. The reaction cocktail was pipetted in four steps in the following order: • 20 μl of assay buffer (standard buffer) • 5 μl of ATP solution (in H2O) • 5 μl of test compound (in 10% DMSO) • 20 μl enzyme/substrate mix
(§2) The reaction cocktails were incubated at 30° C. for 60 minutes. The reaction is stopped with 50 μl of 2% (v/v) H3PO4, plates were aspirated and washed two times with 200 μl 0.9% (w/v) NaCl. Incorporation of ^33Pi was determined with a microplate scintillation counter (Microbeta, Wallac).
(§3) All assays were performed with a BeckmanCoulter/SAGIAN™ Core System.
(§4) In case of single concentration assays, the potency of the test compound is expressed as % residual activity. […] The fitting method used was a least-squares fit.
(§5) Selectivity of test compounds against BRaf, JNK1 and MKK7, altogether denominated as off-targets was calculated by the ratio of IC50 (off-target)/IC50 (MKK4) and categorized as follows: […]

[2] = target: T2, MKK4 (Homo sapiens, UniProt P45985); assay: 33PanQinase radiometric kinase assay, MKK4; conditions: category based on IC50-values; ATP at apparent Km; read-out: Potency MKK4
T2 construct: purchased ProQinase GmbH, Freiburg, Germany (assay service)
T2 sequence (P45985 1-399): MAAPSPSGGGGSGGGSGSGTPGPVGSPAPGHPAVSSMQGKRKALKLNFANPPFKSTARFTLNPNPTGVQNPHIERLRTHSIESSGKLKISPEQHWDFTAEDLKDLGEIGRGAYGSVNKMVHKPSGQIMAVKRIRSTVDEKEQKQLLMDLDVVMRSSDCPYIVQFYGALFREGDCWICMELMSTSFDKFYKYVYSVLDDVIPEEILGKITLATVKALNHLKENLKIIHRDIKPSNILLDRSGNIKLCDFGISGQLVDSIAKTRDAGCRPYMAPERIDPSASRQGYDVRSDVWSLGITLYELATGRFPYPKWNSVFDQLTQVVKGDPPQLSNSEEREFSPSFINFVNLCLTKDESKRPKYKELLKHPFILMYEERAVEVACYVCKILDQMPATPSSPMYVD
Experimental: as §1, §2, §3, §4

[3] = target: T3, BRaf (Homo sapiens, UniProt P15056); assay: 33PanQinase radiometric kinase assay, BRaf (off-target); conditions: ratio IC50(off-target)/IC50(MKK4)
T3 construct: purchased ProQinase GmbH, Freiburg, Germany (assay service)
T3 sequence (P15056 whole entry): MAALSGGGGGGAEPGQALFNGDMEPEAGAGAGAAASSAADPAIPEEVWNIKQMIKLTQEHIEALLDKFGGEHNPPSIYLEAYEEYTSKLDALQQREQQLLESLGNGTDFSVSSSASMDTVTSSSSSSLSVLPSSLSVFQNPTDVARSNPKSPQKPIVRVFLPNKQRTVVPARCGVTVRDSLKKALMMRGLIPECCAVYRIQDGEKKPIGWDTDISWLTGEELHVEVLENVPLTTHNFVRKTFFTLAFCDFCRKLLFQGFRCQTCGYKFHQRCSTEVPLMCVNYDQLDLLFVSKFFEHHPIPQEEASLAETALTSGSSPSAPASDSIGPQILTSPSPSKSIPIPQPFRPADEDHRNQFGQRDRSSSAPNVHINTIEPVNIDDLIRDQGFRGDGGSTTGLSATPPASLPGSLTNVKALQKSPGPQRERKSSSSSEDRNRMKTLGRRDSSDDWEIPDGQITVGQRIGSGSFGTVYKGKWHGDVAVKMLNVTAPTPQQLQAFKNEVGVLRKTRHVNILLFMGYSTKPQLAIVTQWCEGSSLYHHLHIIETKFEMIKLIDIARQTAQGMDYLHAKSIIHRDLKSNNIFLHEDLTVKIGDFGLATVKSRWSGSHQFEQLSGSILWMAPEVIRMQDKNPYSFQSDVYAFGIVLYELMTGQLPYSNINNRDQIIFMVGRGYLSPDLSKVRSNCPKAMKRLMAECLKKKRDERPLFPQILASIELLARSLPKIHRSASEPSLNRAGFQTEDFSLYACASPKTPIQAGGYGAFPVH
Experimental: as §1, §2, §3, §4, §5

[4] = target: T4, MKK7 (Homo sapiens, UniProt O14733); assay: 33PanQinase radiometric kinase assay, MKK7 (off-target); conditions: ratio IC50(off-target)/IC50(MKK4)
T4 construct: purchased ProQinase GmbH, Freiburg, Germany (assay service)
T4 sequence (O14733 1-419): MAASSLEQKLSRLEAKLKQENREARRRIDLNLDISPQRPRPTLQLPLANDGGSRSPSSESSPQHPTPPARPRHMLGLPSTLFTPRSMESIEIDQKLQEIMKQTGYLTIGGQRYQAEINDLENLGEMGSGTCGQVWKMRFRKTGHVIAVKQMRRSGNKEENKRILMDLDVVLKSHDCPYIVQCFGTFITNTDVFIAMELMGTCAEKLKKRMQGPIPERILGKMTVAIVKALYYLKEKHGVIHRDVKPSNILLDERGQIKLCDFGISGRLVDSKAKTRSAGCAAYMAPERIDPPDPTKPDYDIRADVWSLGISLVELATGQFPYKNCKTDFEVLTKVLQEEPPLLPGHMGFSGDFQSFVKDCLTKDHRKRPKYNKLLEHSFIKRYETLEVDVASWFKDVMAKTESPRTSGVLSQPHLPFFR
Experimental: as §1, §2, §3, §4, §5

T1 sequence (P45983 whole entry): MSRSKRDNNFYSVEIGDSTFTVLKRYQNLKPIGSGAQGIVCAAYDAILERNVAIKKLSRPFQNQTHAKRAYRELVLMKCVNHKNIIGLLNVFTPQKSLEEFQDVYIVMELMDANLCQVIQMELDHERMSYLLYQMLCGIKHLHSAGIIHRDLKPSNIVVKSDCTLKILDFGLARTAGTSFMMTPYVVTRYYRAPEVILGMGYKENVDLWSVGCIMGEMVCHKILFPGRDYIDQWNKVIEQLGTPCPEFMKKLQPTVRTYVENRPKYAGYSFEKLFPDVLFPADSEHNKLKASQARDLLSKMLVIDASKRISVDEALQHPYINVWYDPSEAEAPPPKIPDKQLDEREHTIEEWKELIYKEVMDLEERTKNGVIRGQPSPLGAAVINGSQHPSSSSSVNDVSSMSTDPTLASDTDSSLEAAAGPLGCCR

| Compound | Selectivity JNK1 [1] | IC50 [2] [nM] | Selectivity Braf [3] | Selectivity MKK7 [4] |
| --- | --- | --- | --- | --- |
| CCCS(=O)(=O)Nc1c(F)ccc(C(=O)c2n[nH]c3ncc(-c4ccc(C(C)(C)C)cc4)cc23)c1F [Example 19, N-(3-(5-(4-(tert-butyl)phenyl)-1H-pyrazolo[3,4-b]pyridine-3-carbonyl)-2,6-difluorophenyl)propane-1-sulfonamide] | ++ (100 ≥ IC50(off-target)/IC50(MKK4) > 10) | 100 to 1000 | +++ (IC50(off-target)/IC50(MKK4) > 100) | +++ (IC50(off-target)/IC50(MKK4) > 100) |
| CCCS(=O)(=O)Nc1c(F)ccc(C(=O)c2n[nH]c3ncc(-c4cnc(C(C)(C)C)nc4)cc23)c1F [Example 21, N-(3-(5-(2-(tert-butyl)pyrimidin-5-yl)-1H-pyrazolo[3,4-b]pyridine-3-carbonyl)-2,6-difluorophenyl)propane-1-sulfonamide] | +++ (IC50(off-target)/IC50(MKK4) > 100) | < 100 | +++ (IC50(off-target)/IC50(MKK4) > 100) | +++ (IC50(off-target)/IC50(MKK4) > 100) |
| CCCS(=O)(=O)Nc1c(F)ccc(C(=O)c2n[nH]c3ncc(-c4cnc(SC)nc4)cc23)c1F [Example 22, N-(2,6-difluoro-3-(5-(2-(methylthio)pyrimidin-5-yl)-1H-pyrazolo[3,4-b]pyridine-3-carbonyl)phenyl)propane-1-sulfonamide] | +++ (IC50(off-target)/IC50(MKK4) > 100) | < 100 | +++ (IC50(off-target)/IC50(MKK4) > 100) | +++ (IC50(off-target)/IC50(MKK4) > 100) |
| CCCS(=O)(=O)Nc1c(F)ccc(C(=O)c2n[nH]c3ncc(-c4cnc(C(C)C)nc4)cc23)c1F [Example 23, N-(2,6-difluoro-3-(5-(2-isopropylpyrimidin-5-yl)-1H-pyrazolo[3,4-b]pyridine-3-carbonyl)phenyl)propane-1-sulfonamide] | +++ (IC50(off-target)/IC50(MKK4) > 100) | < 100 | +++ (IC50(off-target)/IC50(MKK4) > 100) | +++ (IC50(off-target)/IC50(MKK4) > 100) |
| CCCS(=O)(=O)Nc1c(F)ccc(C(=O)c2n[nH]c3ncc(-c4cccnc4)cc23)c1F [Example 27, N-(2,6-difluoro-3-(5-(pyridin-3-yl)-1H-pyrazolo[3,4-b]pyridine-3-carbonyl)phenyl)propane-1-sulfonamide] | +++ (IC50(off-target)/IC50(MKK4) > 100) | < 100 | +++ (IC50(off-target)/IC50(MKK4) > 100) | +++ (IC50(off-target)/IC50(MKK4) > 100) |
| CCCS(=O)(=O)Nc1c(F)ccc(C(=O)c2n[nH]c3ncc(-c4ccc(C(=O)O)nc4)cc23)c1F [Example 28, 5-(3-(2,4-difluoro-3-(propylsulfonamido)benzoyl)-1H-pyrazolo[3,4-b]pyridin-5-yl)picolinic acid] | +++ (IC50(off-target)/IC50(MKK4) > 100) | < 100 | +++ (IC50(off-target)/IC50(MKK4) > 100) | ++ (100 ≥ IC50(off-target)/IC50(MKK4) > 10) |
| CCCS(=O)(=O)Nc1c(F)ccc(C(=O)c2n[nH]c3ncc(-c4cncnc4C)cc23)c1F [Example 29, N-[2,6-difluoro-3-[5-(4-methylpyrimidin-5-yl)-1H-pyrazolo[3,4-b]pyridine-3-carbonyl]phenyl]propane-1-sulfonamide] | +++ (IC50(off-target)/IC50(MKK4) > 100) | 100 to 1000 | +++ (IC50(off-target)/IC50(MKK4) > 100) | +++ (IC50(off-target)/IC50(MKK4) > 100) |
| CCCS(=O)(=O)Nc1c(F)ccc(C(=O)c2n[nH]c3ncc(-c4cnc(C)nc4C)cc23)c1F [Example 30, N-[3-[5-(2,4-dimethylpyrimidin-5-yl)-1H-pyrazolo[3,4-b]pyridine-3-carbonyl]-2,6-difluoro-phenyl]propane-1-sulfonamide] | +++ (IC50(off-target)/IC50(MKK4) > 100) | 100 to 1000 | +++ (IC50(off-target)/IC50(MKK4) > 100) | +++ (IC50(off-target)/IC50(MKK4) > 100) |
| CCCS(=O)(=O)Nc1c(F)ccc(C(=O)c2n[nH]c3ncc(-c4cnc(C5CC5)nc4C)cc23)c1F [Example 31, N-(3-(5-(2-cyclopropyl-4-methylpyrimidin-5-yl)-1H-pyrazolo[3,4-b]pyridine-3 carbonyl)-2,6-difluorophenyl)propane-1-sulfonamide] | +++ (IC50(off-target)/IC50(MKK4) > 100) | 100 to 1000 | +++ (IC50(off-target)/IC50(MKK4) > 100) | +++ (IC50(off-target)/IC50(MKK4) > 100) |
| CCCS(=O)(=O)Nc1c(F)ccc(C(=O)c2n[nH]c3ncc(-c4cnc(C5CC5)nc4SC)cc23)c1F [Example 32, N-(3-(5-(2-cyclopropyl-4-(methylthio)pyrimidin-5-yl)-1H-pyrazolo[3,4-b]pyridine-3 carbonyl)-2,6-difluorophenyl)propane-1-sulfonamide] | +++ (IC50(off-target)/IC50(MKK4) > 100) | 100 to 1000 | +++ (IC50(off-target)/IC50(MKK4) > 100) | +++ (IC50(off-target)/IC50(MKK4) > 100) |
| CCCS(=O)(=O)Nc1c(F)ccc(C(=O)c2n[nH]c3ncc(-c4cnc(SC)nc4C)cc23)c1F [Example 33, N-[2,6-difluoro-3-[5-(4-methyl-2-methylsulfanyl-pyrimidin-5-yl)-1H-pyrazolo[3,4-b]pyridine-3-carbonyl]phenyl]propane-1-sulfonamide] | +++ (IC50(off-target)/IC50(MKK4) > 100) | < 100 | +++ (IC50(off-target)/IC50(MKK4) > 100) | +++ (IC50(off-target)/IC50(MKK4) > 100) |
| CCCS(=O)(=O)Nc1c(F)ccc(C(=O)c2n[nH]c3ncc(-c4cnc(OC)nc4OC)cc23)c1F [Example 34, N-[3-[5-(2,4-dimethoxypyrimidin-5-yl)-1H-pyrazolo[3,4-b]pyridine-3-carbonyl]-2,6-difluoro-phenyl]propane-1-sulfonamide] | +++ (IC50(off-target)/IC50(MKK4) > 100) | < 100 | +++ (IC50(off-target)/IC50(MKK4) > 100) | +++ (IC50(off-target)/IC50(MKK4) > 100) |
| CCCS(=O)(=O)Nc1c(F)cc(F)c(C(=O)c2n[nH]c3ncc(-c4cnc(C5CC5)nc4)cc23)c1F [Example 35, N-(3-(5-(2-cyclopropylpyrimidin-5-yl)-1H-pyrazolo[3,4-b]pyridine-3-carbonyl)-2,4,6-trifluorophenyl)propane-1-sulfonamide] | +++ (IC50(off-target)/IC50(MKK4) > 100) | < 100 | +++ (IC50(off-target)/IC50(MKK4) > 100) | +++ (IC50(off-target)/IC50(MKK4) > 100) |
